ChEMBL document CHEMBL1155330, “Schisanwilsonins A-G and related anti-HBV lignans from the fruits of Schisandra wilsoniana” (Bioorg Med Chem Lett, 2009)

How the values were obtained:
[1] = system: Hepatitis B virus; test: Antiviral activity against Hepatitis B virus infected human HepG2.2.15 cells assessed as HBsAg secretion at 200 […] after 9 days by ELISA; assay type: functional; details: HepG2 2.2.15, 216 h
[2] = system: Hepatitis B virus; test: Antiviral activity against Hepatitis B virus infected human HepG2.2.15 cells assessed as HBsAg secretion at 100 […] after 9 days by ELISA; assay type: functional; details: HepG2 2.2.15, 216 h
[3] = system: Hepatitis B virus; test: Antiviral activity against Hepatitis B virus infected human HepG2.2.15 cells assessed as HBsAg secretion at 25 […] after 9 days by ELISA; assay type: functional; details: HepG2 2.2.15, 216 h
[4] = system: Hepatitis B virus; test: Antiviral activity against Hepatitis B virus infected human HepG2.2.15 cells assessed as HBsAg secretion at 50 […] after 9 days by ELISA; assay type: functional; details: HepG2 2.2.15, 216 h
[5] = system: Hepatitis B virus; test: Antiviral activity against Hepatitis B virus infected human HepG2.2.15 cells assessed as HBeAg secretion at 100 […] after 9 days by ELISA; assay type: functional; details: HepG2 2.2.15, 216 h
[6] = system: Hepatitis B virus; test: Antiviral activity against Hepatitis B virus infected human HepG2.2.15 cells assessed as HBeAg secretion at 200 […] after 9 days by ELISA; assay type: functional; details: HepG2 2.2.15, 216 h
[7] = system: Hepatitis B virus; test: Antiviral activity against Hepatitis B virus infected human HepG2.2.15 cells assessed as HBeAg secretion at 50 […] after 9 days by ELISA; assay type: functional; details: HepG2 2.2.15, 216 h
[8] = system: Hepatitis B virus; test: Antiviral activity against Hepatitis B virus infected human HepG2.2.15 cells assessed as HBeAg secretion at 25 […] after 9 days by ELISA; assay type: functional; details: HepG2 2.2.15, 216 h
[9] = Cytotoxicity against human HepG2(2.2.15) cells at 200 ug/mL by MTT assay; assay type: cell-based; details: read-out: GI
[10] = Cytotoxicity against human HepG2(2.2.15) cells at 100 ug/mL by MTT assay; assay type: cell-based; details: read-out: GI
[11] = Cytotoxicity against human HepG2(2.2.15) cells at 50 ug/mL by MTT assay; assay type: cell-based; details: read-out: GI

| Structure (SMILES) | inhibition in vivo at 0.2 mg/kg [1] [%] | inhibition in vivo at 0.1 mg/kg [2] [%] | inhibition in vivo at 0.025 mg/kg [3] [%] | inhibition in vivo at 0.05 mg/kg [4] [%] | inhibition in vivo at 0.1 mg/kg [5] [%] | inhibition in vivo at 0.2 mg/kg [6] [%] | inhibition in vivo at 0.05 mg/kg [7] [%] | inhibition in vivo at 0.025 mg/kg [8] [%] | inhibition at 200 ug/mL [9] [%] | inhibition at 100 ug/mL [10] [%] | inhibition at 50 ug/mL [11] [%] |
| --- | --- | --- | --- | --- | --- | --- | --- | --- | --- | --- | --- |
| COc1cc2c(c(O)c1OC)-c1c(cc(OC)c(OC)c1OC)C[C@](C)(O)[C@@H](C)C2 [GOMISIN H] | 11.6 | 3.7 | 0 | 0 | 0 | 1.6 | 0 | 0 |  |  |  |
| Nc1ccn([C@@H]2CS[C@H](CO)O2)c(=O)n1 [LAMIVUDINE] | 28.6 |  |  |  |  | 34.5 |  |  |  |  |  |
| COc1cc2c(c(OC)c1OC)-c1c(cc(OC)c(OC)c1OC)C[C@H](C)[C@H](C)C2 [SCHISANDRIN A] | 50.3 | 30.9 | 0 | 8.8 | 11.9 | 15.9 | 0 | 0 |  |  |  |
| COc1cc2c(c(O)c1OC)-c1c(cc(OC)c(OC)c1OC)C[C@@H](C)[C@@H](C)C2 [SCHISANHENOL] |  |  | 45 |  |  |  |  | 0 | ≥ 25 | ≥ 25 | ≥ 25 |
| C/C=C(/C)C(=O)O[C@H]1c2cc(OC)c(OC)c(OC)c2-c2c(cc3c(c2O)OCO3)C[C@H](C)[C@@]1(C)O [SCHISANWILSONIN A] |  |  | 0 | 5.3 |  |  | 14 | 0 | ≥ 25 | ≥ 25 |  |
| C/C=C(\C)C(=O)O[C@H]1c2cc(OC)c(OC)c(OC)c2-c2c(cc3c(c2O)OCO3)C[C@H](C)[C@@]1(C)O [SCHISANWILSONIN B] |  | 7.4 | 0 | 0 | 18.1 |  | 9.2 | 0.6 | ≥ 25 |  |  |
| COc1cc2c(c(OC)c1OC)-c1c(cc3c(c1O)OCO3)C[C@H](C)[C@@](C)(O)[C@H]2OC(=O)c1ccccc1 [SCHISANWILSONIN C] |  |  | 0 | 0 |  |  | 11.7 | 11.6 | ≥ 25 | ≥ 25 |  |
| C/C=C(\C)C(=O)O[C@H]1c2cc(OC)c(OC)c(OC)c2-c2c(cc(O)c(OC)c2O)C[C@H](C)[C@@]1(C)O [SCHISANWILSONIN D] |  | 28.8 | 12.5 | 19.5 | 21.6 |  | 16.5 | 6.2 | ≥ 25 |  |  |
| COc1cc2c(c(OC)c1OC)-c1c(cc3c(c1O)OCO3)C[C@H](C)[C@@](C)(O)[C@H]2OC(=O)C(C)C [SCHISANWILSONIN E] |  | 0 | 0 | 0 | 2 |  | 0 | 0 | ≥ 25 |  |  |
| COc1cc2c(c(OC)c1OC)-c1c(cc3c(c1O)OCO3)C[C@H](C)[C@@](C)(O)[C@H]2OC(C)=O [SCHISANWILSONIN F] |  | 0 | 0 | 0 | 9.3 |  | 6.7 | 5.5 | ≥ 25 |  |  |
| COc1cc2c(c(OC)c1OC)-c1c(cc(O)c(OC)c1O)C[C@H](C)[C@@](C)(O)[C@H]2OC(=O)c1ccccc1 [SCHISANWILSONIN G] | 0 | 0 | 0 | 0 | 3.4 | 5.6 | 1.6 | 0 |  |  |  |
